Measured values from publication PMC8286840, “Identifying SARS-CoV-2 antiviral compounds by screening for small molecule inhibitors of Nsp3 papain-like protease” (Biochemical Journal, 2021).
Where a name gives a salt, the structure may show the parent alone. Read-outs that look alike come from different tables or passages of the source.

Tests used:
[1] = molecular target: T1, SARS-CoV-2 PLpro (nsp3 1564–1878) (Severe acute respiratory syndrome coronavirus 2, UniProt P0DTD1); test: biochemical; design: FRET-quenched peptide (Pro3) cleavage by PLpro, 10 min pre-incubation, slope over 20 min, normalised to no-compound control; conditions: low concentration screen, read-out: % of control remaining
[2] = molecular target: T1, SARS-CoV-2 PLpro (nsp3 1564–1878); test: biochemical; design: FRET-quenched peptide (Pro3) cleavage by PLpro, 10 min pre-incubation, slope over 20 min, normalised to no-compound control; conditions: high concentration screen, read-out: % of control remaining

SMILES: O=C(c1ccc2c(c1)OCCO2)N1CCCCC1 [CX 546]
- remaining activity at 1.25 µM ([1]; Well no.=729): 103%
- remaining activity at 3.75 µM ([2]; Well no.=729): 99.5%

SMILES: Cc1cnc(CNC(=O)c2c(=O)c3ccc(N4CCCN(C)CC4)nc3n3c2sc2ccccc23)cn1 [CX-5461]
- remaining activity at 1.25 µM ([1]; Well no.=5340): 99.1%
- remaining activity at 3.75 µM ([2]; Well no.=5340): 102%

SMILES: CN1CCC(S(=O)(=O)c2c(Cl)ccc(NC(=O)Nc3cccc(F)c3Cl)c2O)CC1 [CXCR2-IN-1]
- remaining activity at 1.25 µM ([1]; Well no.=8705): 100%
- remaining activity at 3.75 µM ([2]; Well no.=8705): 98.8%

SMILES: CCc1ccn2ccnc2c1N1CCCN([C@@H](CC(N)=O)C2CCN(C(=O)[C@H]3C[C@@H]4CC[C@H]3O4)CC2)CC1 [CXCR7 modulator 2]
- remaining activity at 1.25 µM ([1]; Well no.=8557): 112%
- remaining activity at 3.75 µM ([2]; Well no.=8557): 108%

SMILES: Cc1nc(N)sc1-c1ccnc(Nc2ccc(N3CCOCC3)cc2)n1 [CYC-116]
- remaining activity at 1.25 µM ([1]; Well no.=2885): 103%
- remaining activity at 3.75 µM ([2]; Well no.=2885): 101%

SMILES: O=C(c1cc(C2CC2)on1)N(C1CCCCC1)C1CCCCC1 [CYM-5541]
- remaining activity at 1.25 µM ([1]; Well no.=6224): 97.7%
- remaining activity at 3.75 µM ([2]; Well no.=6224): 94.5%

SMILES: Cc1ccc(-c2c(-c3nn(C)c4ncnc(N5CC[C@H](N6CCCCC6)C5)c34)cnn2C)cc1 [CYP3cide]
- remaining activity at 1.25 µM ([1]; Well no.=5646): 95.6%
- remaining activity at 3.75 µM ([2]; Well no.=5646): 91.1%

SMILES: N#CCNC(=O)c1ccc(-c2ccnc(Nc3ccc(N4CCOCC4)cc3)n2)cc1 [CYT11387]
- remaining activity at 1.25 µM ([1]; Well no.=2753): 98.6%
- remaining activity at 3.75 µM ([2]; Well no.=2753): 99.6%

SMILES: CO[C@H]1C(=O)[C@]2(C)[C@@H](OC)C[C@H]3OC[C@@]3(OC(C)=O)[C@H]2[C@H](OC(=O)c2ccccc2)[C@]2(O)C[C@H](OC(=O)[C@H](O)[C@@H](NC(=O)OC(C)(C)C)c3ccccc3)C(C)=C1C2(C)C [Cabazitaxel (Jevtana)]
- remaining activity at 1.25 µM ([1]; Well no.=5263): 95.3%
- remaining activity at 3.75 µM ([2]; Well no.=5263): 92.6%

SMILES: C=CCN1C[C@H](C(=O)N(CCCN(C)C)C(=O)NCC)C[C@@H]2c3cccc4[nH]cc(c34)C[C@H]21 [Cabergoline]
- remaining activity at 1.25 µM ([1]; Well no.=1929): 105%
- remaining activity at 1.25 µM ([1]; Well no.=7179): 94.5%
- remaining activity at 3.75 µM ([2]; Well no.=1929): 105%
- remaining activity at 3.75 µM ([2]; Well no.=7179): 96.6%

SMILES: CC(=O)OC[C@@]1(O)C[C@@]23CC[C@@H]4c5ccoc5CC[C@@]4(C)[C@@H]2CC[C@@H]1C3 [Cafestol acetate]
- remaining activity at 1.25 µM ([1]; Well no.=3525): 96.8%
- remaining activity at 3.75 µM ([2]; Well no.=3525): 103%

SMILES: C[C@@]12CCc3occc3[C@H]1CC[C@@]13C[C@@H](CC[C@H]12)[C@@](O)(CO)C3 [Cafestol]
- remaining activity at 1.25 µM ([1]; Well no.=3523): 102%
- remaining activity at 3.75 µM ([2]; Well no.=3523): 96.8%

SMILES: O=C(/C=C/c1ccc(O)c(O)c1)OCCc1ccccc1 [Caffeic acid phenethyl ester]
- remaining activity at 1.25 µM ([1]; Well no.=140): 103%
- remaining activity at 3.75 µM ([2]; Well no.=140): 104%

SMILES: O=C(O)/C=C/c1ccc(O)c(O)c1 [Caffeic acid]
- remaining activity at 1.25 µM ([1]; Well no.=233): 99%
- remaining activity at 1.25 µM ([1]; Well no.=3957): 97%
- remaining activity at 1.25 µM ([1]; Well no.=7073): 101%
- remaining activity at 3.75 µM ([2]; Well no.=233): 99.3%
- remaining activity at 3.75 µM ([2]; Well no.=3125): 104%
- remaining activity at 3.75 µM ([2]; Well no.=3957): 96.7%
- remaining activity at 3.75 µM ([2]; Well no.=7073): 95.2%

SMILES: Cn1c(=O)c2c(ncn2C)n(C)c1=O [Caffeine]
- remaining activity at 1.25 µM ([1]; Well no.=329): 95.2%
- remaining activity at 1.25 µM ([1]; Well no.=1737): 105%
- remaining activity at 1.25 µM ([1]; Well no.=3344): 89.5%
- remaining activity at 3.75 µM ([2]; Well no.=329): 95.9%
- remaining activity at 3.75 µM ([2]; Well no.=1737): 103%
- remaining activity at 3.75 µM ([2]; Well no.=3344): 91.8%

SMILES: C=C1CC[C@H](O)C/C1=C/C=C1\CCC[C@]2(C)[C@@H]([C@H](C)CCCC(C)(C)O)CC[C@@H]12 [Calcifediol]
- remaining activity at 1.25 µM ([1]; Well no.=1821): 90.8%
- remaining activity at 3.75 µM ([2]; Well no.=1821): 93.1%

SMILES: CNc1ccc2oc(C[C@H]3O[C@@]4(CC[C@H]3C)O[C@H]([C@H](C)C(=O)c3ccc[nH]3)[C@H](C)C[C@H]4C)nc2c1C(=O)O [Calcimycin]
- remaining activity at 1.25 µM ([1]; Well no.=376): 98.7%
- remaining activity at 3.75 µM ([2]; Well no.=376): 96.8%

SMILES: C=C1/C(=C\C=C2/CCC[C@]3(C)[C@@H]([C@H](C)/C=C/[C@@H](O)C4CC4)CC[C@@H]23)C[C@@H](O)C[C@@H]1O [Calcipotriene]
- remaining activity at 1.25 µM ([1]; Well no.=1760): 96.1%
- remaining activity at 3.75 µM ([2]; Well no.=1760): 96.3%

SMILES: C#CCOc1ccc2c(c1)c(-c1ccc(C(C)C)cc1)nc(=O)n2C(C)C [Calcium-Sensing Receptor Antagonists I]
- remaining activity at 1.25 µM ([1]; Well no.=8007): 101%
- remaining activity at 3.75 µM ([2]; Well no.=8007): 98.6%

SMILES: CCN[C@H]1CO[C@@H](O[C@H]2[C@H](O[C@H]3C#C/C=C\C#C[C@]4(O)CC(=O)C(NC(=O)OC)=C3/C4=C/CSSSC)O[C@H](C)[C@@H](NO[C@H]3C[C@H](O)[C@H](SC(=O)c4c(C)c(I)c(O[C@@H]5O[C@@H](C)[C@H](O)[C@@H](OC)[C@H]5O)c(OC)c4OC)[C@@H](C)O3)[C@@H]2O)C[C@@H]1OC [Calicheamicin]
- remaining activity at 1.25 µM ([1]; Well no.=7060): 94.4%
- remaining activity at 3.75 µM ([2]; Well no.=7060): 91.6%

SMILES: Cc1ccc(O)c(N=Nc2c(O)cc(S(=O)(=O)O)c3ccccc23)c1 [Calmagite]
- remaining activity at 1.25 µM ([1]; Well no.=8168): 96.3%
- remaining activity at 3.75 µM ([2]; Well no.=8168): 82.2%

SMILES: Clc1ccc(C(c2ccc(Cl)cc2)[n+]2ccn(CC(OCc3ccc(Cl)cc3Cl)c3ccc(Cl)cc3Cl)c2)cc1 (stereo not shown) [Calmidazolium chloride]
- remaining activity at 1.25 µM ([1]; Well no.=174): 101%
- remaining activity at 3.75 µM ([2]; Well no.=174): 94.5%

SMILES: CN(C)C(=O)COC(=O)Cc1ccc(OC(=O)c2ccc(NC(=N)N)cc2)cc1 [Camostat mesylate]
- remaining activity at 1.25 µM ([1]; Well no.=5405): 101%
- remaining activity at 3.75 µM ([2]; Well no.=5405): 109%

SMILES: CC[C@@]1(O)C(=O)OCc2c1cc1n(c2=O)Cc2cc3ccccc3nc2-1 [Camptothecin]
- remaining activity at 1.25 µM ([1]; Well no.=1664): 98.5%
- remaining activity at 1.25 µM ([1]; Well no.=3127): 96.8%
- remaining activity at 3.75 µM ([2]; Well no.=1664): 84.5%
- remaining activity at 3.75 µM ([2]; Well no.=3127): 91.9%

SMILES: Cc1ccc([C@@H]2O[C@H](CO)[C@@H](O)[C@H](O)[C@H]2O)cc1Cc1ccc(-c2ccc(F)cc2)s1 [Canagliflozin]
- remaining activity at 1.25 µM ([1]; Well no.=5075): 94.6%
- remaining activity at 3.75 µM ([2]; Well no.=5075): 95.2%

SMILES: CCOc1nc2cccc(C(=O)OC(C)OC(=O)OC3CCCCC3)c2n1Cc1ccc(-c2ccccc2-c2nn[nH]n2)cc1 (stereo not shown) [Candesartan (Cilexetil)]
- remaining activity at 1.25 µM ([1]; Well no.=7673): 95.7%
- remaining activity at 3.75 µM ([2]; Well no.=7673): 92.5%

SMILES: CCOc1nc2cccc(C(=O)O)c2n1Cc1ccc(-c2ccccc2-c2nnn[nH]2)cc1 [Candesartan]
- remaining activity at 1.25 µM ([1]; Well no.=1846): 96.4%
- remaining activity at 1.25 µM ([1]; Well no.=7380): 103%
- remaining activity at 3.75 µM ([2]; Well no.=1846): 96.2%
- remaining activity at 3.75 µM ([2]; Well no.=7380): 105%

SMILES: C=CC(=O)Nc1cc2c(Nc3ccc(F)c(Cl)c3)ncnc2cc1OCCCN1CCOCC1 [Canertinib]
- remaining activity at 1.25 µM ([1]; Well no.=2693): 105%
- remaining activity at 3.75 µM ([2]; Well no.=2693): 107%

SMILES: C[C@]12CCC(=O)C=C1C=C[C@@H]1[C@@H]2CC[C@@]2(C)[C@H]1CC[C@@]21CCC(=O)O1 [Canrenone]
- remaining activity at 1.25 µM ([1]; Well no.=2181): 93.5%
- remaining activity at 3.75 µM ([2]; Well no.=2181): 98%
